# In paper PMC10644342, “Improved Antibacterial Activity of 1,3,4-Oxadiazole-Based Compounds That Restrict Staphylococcus aureus Growth Independent of LtaS Function” (ACS Infectious Diseases, 2023):
# Like-named read-outs stand apart in the source and are kept apart here.
# How the values were obtained:
# S. aureus strain SH1000 = assay: Biofilm prevention, crystal violet assay; assay type: cell-based, Staphylococcus aureus; conditions: for concentration causing a 50% reduction in biofilm formation: SH1000, 24 h
# Protocol: (§1) An indication of the biofilm prevention capabilities of 1771 and its derivatives 9–14 was achieved through the application of the crystal violet assay. S. aureus strain SH1000 and S. epidermidis strain RP62A were used, as they are strong biofilm formers. Overnight cultures were diluted 1:200 in fresh TSB containing 0.5% glucose (TSB-G), and 100 μL was added to individual wells in a 96-well microtiter plate. One hundred microliters of 1771 and 9–14 were diluted in TSB-G and added to bacteria at a final concentration ranging from 256 to 0.25 μg/mL with subsequent incubation for 24 h at 37 °C in a static incubator. Following incubation, biofilms were washed four times with ddH2O before being stained with 150 μL of 0.1% crystal violet for 30 min at room temperature. Following a further four washes in ddH2O, wells were resuspended in 200 μL of 7% acetic acid. The absorbance intensity of the crystal violet was measured at abs595nm in a Sunrise plate reader. Biomass formed was measured as a percentage of the no-compound control.
# [1] = tested on: S. aureus wild type, clpX, ltaS, tarO mutants and ltaS overexpression strains; assay: MIC against LtaS deletion and overexpression strains; assay type: cell-based, Staphylococcus aureus
# Protocol: (§2) S. aureus, S. epidermidis, E. faecalis, and E. faecium strains were routinely cultivated on tryptic soy agar (TSA) and grown for 18 h at 37 °C. S. aureus single colonies were subsequently transferred into 2 mL of tryptic soy broth (TSB) and grown for a further 18 h at 37 °C while being shaken at 180 rpm. S. pyogenes, S. agalactiae, and S. dysgalactiae strains were routinely cultured on TSA supplemented with 5% sheep blood and grown for 18 h at 37 °C with 5% CO2. E. coli was grown in LB broth at 37 °C. For LtaS-deficient strains, TSB was supplemented with 0.5 M NaCl to provide an osmotically balanced environment and instead grown at 30 °C. For strains harboring the pRMC2 tetracycline inducible vector,[61] the growth medium was supplemented with 10 μg/mL chloramphenicol and […] anhydrotetracycline hydrochloride (Sigma). Phenylalanine-arginine β-naphthylamide (PAβN) (Sigma) was dissolved in sterile water.
# (§3) B. subtilis, staphylococcal, and enterococcal strains were grown in Mueller Hinton broth (MHB), while streptococcal strains were grown in MHB supplemented with 5% laked horse blood. All strains were grown for 18 h at 37 °C. The overnight cultures were subsequently subcultured 1:200 and grown to the exponential phase (OD600nm = 0.5–0.6) in fresh broth. 1771 and its derivatives 9–14 were reconstituted in DMSO and further diluted by performing a 1:2 serial dilution ranging between 256 and 0.125 μg/mL in a 96-well microtiter plate. One hundred microliters of 0.5 McFarland standardized inoculum (approximately equal to 5 × 10^5 cfu) were then dispensed into each well in the 96-well microtiter plate. The plate was incubated for 18 h at 37 °C.
# For overexpression studies, full-length ltaS was amplified by PCR using MRSA strian LAC genomic DNA, primer pair LtaS-FW: 5′-[…]-3′ and LtaS-RV: 5′-[…]-3′, and Phusion High-Fidelity DNA Polymerase (Thermo Fisher). The resulting PCR product was cloned into the tetracycline inducible plasmid pRMC2 using SacI and KpnI restriction sites and T4 ligase (NEB). The cloned vector was subsequently transformed into RN4220 followed by LAC through electroporation.
# LTA = LTA quantification by Western blot; assay type: cell-based, Staphylococcus aureus; conditions: strain LAC, 1× and 4× the MIC
# Protocol: Overnight cultures of S. aureus strains were diluted 1:200 in fresh TSB and grown to an optical density of OD600nm 0.3. […] Vancomycin and daptomycin at 1× and 4× MIC were also included as control antibiotics. Cells were then normalized to have 10 mL of OD600nm 0.6, pelleted at 4000 rpm, and resuspended in 300 μL of PBS containing 200 μg/mL lysostaphin. This suspension was then incubated at 37 °C for 45 min to allow digestion of the cell wall to occur. One hundred microlitres of 4× SDS sample buffer were then added, and the mixture was boiled at 95 °C for 20 min. The insoluble material was then removed by pelleting at 16,000 rpm for 10 min. The supernatant containing LTA was then subjected to SDS-PAGE on a 4–20% Tris-glycine gel (Bio-Rad). The gel was transferred onto a PVDF membrane using a Trans-Blot Turbo Transfer System (Bio-Rad). The membrane was blocked overnight in TBST containing 5% semi-skimmed milk before being incubated with a mouse anti-LTA antibody (Hycult; HM2048; 1:2000 dilution) followed by a goat antimouse-HRP secondary antibody (Proteintech; SA00001; 1:2000 dilution) before being visualized using an Amersham-ECL kit (Cytiva).
# S. pyogenes = assay: MIC, broth microdilution (CLSI); assay type: cell-based; conditions: Streptococcus pyogenes
# Protocol: as §2, §3
# S. dysgalactiae = assay: MIC, broth microdilution (CLSI); assay type: cell-based; conditions: Streptococcus dysgalactiae
# Protocol: as §2, §3
# E. faecalis (JH2-2) = assay: MIC, broth microdilution (CLSI); assay type: cell-based; conditions: Enterococcus faecalis
# Protocol: as §2, §3
# E. faecium (C68) = assay: MIC, broth microdilution (CLSI); assay type: cell-based; conditions: Enterococcus faecium
# Protocol: as §2, §3
# S. agalactiae = assay: MIC, broth microdilution (CLSI); assay type: cell-based; conditions: Streptococcus agalactiae
# Protocol: as §2, §3
# MRSA strain LAC = assay: Minimum bactericidal concentration; assay type: cell-based, Staphylococcus aureus; conditions: for classification bactericidal/bacteriostatic: time kill and MBC
# Protocol: For an antibiotic with an MBC ≤ 4×, the MIC was considered to be bactericidal, whereas with an MBC > 4×, the MIC was considered to be bacteriostatic.[24] […] Percentage survival was calculated according to the starting inoculum of 5 × 10^5 cfu at time 0 h.
# S. epidermidis = assay: MIC, broth microdilution (CLSI); assay type: cell-based, Staphylococcus epidermidis; conditions: for MIC: read-out: minimum inhibitory concentration
# Protocol: as §2, §3
# [2] = tested on: S. epidermidis strain RP62A; assay: Biofilm prevention, crystal violet assay; assay type: cell-based, Staphylococcus epidermidis; conditions: for concentration causing a 50% reduction in biofilm formation: 24 h
# Protocol: as §1
# [3] = Staphylococcus aureus, 8325-4 (wild type), clpX set
# [4] = Staphylococcus aureus, NEWMAN, Newman ΔtarO
# [5] = Staphylococcus aureus, NEWMAN, Newman ΔtarO pRMC2 (empty vector)
# [6] = Staphylococcus aureus, NEWMAN, Newman ΔtarO pltaS (ltaS overexpression)
# [7] = Staphylococcus aureus, SA564 (wild type)
# [8] = Staphylococcus aureus, SA564 clpX knockout mutant
# [9] = NCTC8198, S. pyogenes (NCTC 8198)
# [10] = NCTC12048, S. pyogenes (NCTC 12048)
# [11] = NCTC10238, S. dysgalactiae (NCTC 10238)
# [12] = NCTC13762, S. dysgalactiae (NCTC 13762)
# [13] = Staphylococcus epidermidis, strain 305
# [14] = Staphylococcus epidermidis, strain 311
# [15] = Staphylococcus epidermidis, strain 319
# [16] = Staphylococcus epidermidis, strain 322
# [17] = Staphylococcus epidermidis, strain 771
# [18] = Staphylococcus epidermidis, strain 780
# [19] = Staphylococcus epidermidis, strain RP62A
Structure (SMILES),concentration causing a 50% reduction in biofilm formation (S. aureus strain SH1000),"MIC [1, 3]","MIC ([1]; Staphylococcus aureus, NEWMAN)","MIC [1, 4]","MIC [1, 5]","MIC [1, 6]","MIC [1, 7]","MIC [1, 8]",LTA signal by Western blot (LTA),MIC (S. pyogenes; [9]),MIC (S. pyogenes; [10]),MIC (S. dysgalactiae; [11]),MIC (S. dysgalactiae; [12]),MIC (E. faecalis (JH2-2)),MIC (E. faecium (C68)),MIC (S. agalactiae; S. agalactiae (18R521)),MIC (S. agalactiae; S. agalactiae (COH1)),classification bactericidal/bacteriostatic (MRSA strain LAC),MIC (S. epidermidis; [13]),MIC (S. epidermidis; [14]),other results
"O=C(COC(=O)Cc1coc2ccc3ccccc3c12)Nc1nnc(-c2ccc(S(F)(F)(F)(F)F)cc2)o1 [Compound 13, 2-Oxo-2-((5-(4-(pentafluoro-l6-sulfaneyl)phenyl)-1,3,4-oxadiazol-2-yl)amino)ethyl 2-(Naphtho[2,1-b]furan-1-yl)acetate]",0.25 µg/mL,0.5 to 1 µg/mL,1 µg/mL,1 µg/mL,1 µg/mL,1 µg/mL,0.25 µg/mL,0.25 µg/mL,reduction in LTA abundance,16 to 32 µg/mL,64 µg/mL,64 µg/mL,64 µg/mL,2 µg/mL,> 128 µg/mL,64 µg/mL,128 µg/mL,bacteriostatic,0.5 to 1 µg/mL,0.5 µg/mL,"biofilm prevention compared with 1771 (S. aureus strain SH1000; SH1000): better than 1771; MIC ([1]; 8325-4 (wild type), clpX set): 0.5 to 1 µg/mL; MIC ([1]; SA564clpX knockout and ltaSH476Q mutant): 0.25 µg/mL; MIC ([1]; Staphylococcus aureus, 8325-4 clpX knockout and ltaS382STOP mutant): 0.25 µg/mL; MIC ([1]; Staphylococcus aureus, 8325-4 clpX knockout mutant): 0.25 µg/mL; MIC ([1]; Staphylococcus aureus, JE2 clpXI265E mutant): 0.25 µg/mL; minimal bactericidal concentration (MBC) (MRSA strain LAC; 8 to 128 μg/mL (up to 256× MIC)): could not be elucidated; MIC90 (S. epidermidis; Staphylococcus epidermidis): 1 µg/mL; MIC (S. epidermidis; [15]): 1 µg/mL; MIC (S. epidermidis; [16]): 0.5 µg/mL; MIC (S. epidermidis; [17]): 0.5 µg/mL; MIC (S. epidermidis; [18]): 0.5 to 1 µg/mL; MIC (S. epidermidis; [19]): 0.5 µg/mL; biofilm prevention compared with 1771 [2]: better than 1771; concentration causing a 50% reduction in biofilm formation [2]: 0.25 µg/mL"
"O=C(COC(=O)Cc1coc2ccc3ccccc3c12)Nc1nnc(-c2ccccc2)o1 [Compound 1771, 2-Oxo-2-((5-phenyl-1,3,4-oxadiazol-2-yl)amino)ethyl 2-(Naphtho[2,1-b]furan-1-yl)acetate, reference compound]",4 µg/mL,16 µg/mL,16 µg/mL,16 µg/mL,16 µg/mL,16 µg/mL,16 µg/mL,16 µg/mL,reduction in LTA abundance,32 to 64 µg/mL,128 µg/mL,> 128 µg/mL,128 µg/mL,16 µg/mL,> 128 µg/mL,128 µg/mL,> 128 µg/mL,bacteriostatic,8 to 16 µg/mL,8 to 16 µg/mL,"MIC ([1]; Staphylococcus aureus, JE2 (wild type)): 16 µg/mL; MIC ([1]; Staphylococcus aureus, JE2 clpXI265E and ltaS339STOP mutant): 16 µg/mL; MIC ([1]; Staphylococcus aureus, SA564clpX knockout and ltaSH476Q mutant): 16 µg/mL; MIC (S. epidermidis; [15]): 8 to 16 µg/mL; MIC (S. epidermidis; [16]): 16 µg/mL; MIC (S. epidermidis; [17]): 8 to 16 µg/mL; MIC (S. epidermidis; [18]): 8 to 16 µg/mL; MIC (S. epidermidis; [19]): 8 to 16 µg/mL; MIC range against S. epidermidis strains (S. epidermidis; collection of S. epidermidis strains): 8 to 16 µg/mL; concentration causing a 50% reduction in biofilm formation [2]: 8 µg/mL"
